Data as given in the supplement of paper PMC10307832.

Experiments:
Test in all cases: relative viability (nuclei count vs DMSO), 5 days (fraction); higher = more cells survive
R406 + OSI-027 = compound: COc1cc(Nc2ncc(F)c(Nc3ccc4c(n3)NC(=O)C(C)(C)O4)n2)cc(OC)c1OC [R406] + COc1cccc2cc(-c3nc([C@H]4CC[C@H](C(=O)O)CC4)n4ncnc(N)c34)[nH]c12 [OSI-027] (partner 0.5 µM)
How it was run: (§1)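 Medians of duplicate plates are given as relative viability. That measure is the nuclei count in treated wells divided by the count in vehicle wells. Counts were taken on 4× images of lung cancer cell lines in 1536-well plates, 5 days after pin-tool dosing the day after seeding with one drug alone or a fixed anchor-drug dose plus five library-drug doses (not always all listed) in √10 steps.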

Daporinad + Pemetrexed = compound: O=C(/C=C/c1cccnc1)NCCCCC1CCN(C(=O)c2ccccc2)CC1 [Daporinad] + Nc1nc2[nH]cc(CCc3ccc(C(=O)N[C@@H](CCC(=O)O)C(=O)O)cc3)c2c(=O)[nH]1 [Pemetrexed] (partner 0.2 µM)
How it was run: as §1

R406 + Crizotinib = compound: COc1cc(Nc2ncc(F)c(Nc3ccc4c(n3)NC(=O)C(C)(C)O4)n2)cc(OC)c1OC [R406] + C[C@@H](Oc1cc(-c2cnn(C3CCNCC3)c2)cnc1N)c1c(Cl)ccc(F)c1Cl [Crizotinib] (partner 1 µM)
How it was run: as §1

Daporinad + Phenformin = compound: O=C(/C=C/c1cccnc1)NCCCCC1CCN(C(=O)c2ccccc2)CC1 [Daporinad] + N=C(N)NC(=N)NCCc1ccccc1 [Phenformin] (partner 250 µM)
How it was run: as §1

Question: Which results are given for UMC-11?
Answer: relative viability (R406 + OSI-027; first compound 0.08 µM): 0.429; relative viability (R406 + OSI-027; first compound 0.253 µM): 0.517; relative viability (R406 + OSI-027; first compound 0.8 µM): 0.488; relative viability (R406 + OSI-027; first compound 2.53 µM): 0.463; relative viability (R406 + OSI-027; first compound 8 µM): 0.253; relative viability (Daporinad + Pemetrexed; first compound 0.0005 µM): 0.746; relative viability (Daporinad + Pemetrexed; first compound 0.001581 µM): 0.83; relative viability (Daporinad + Pemetrexed; first compound 0.005 µM): 0.847; relative viability (Daporinad + Pemetrexed; first compound 0.01581 µM): 0.773; relative viability (R406 + Crizotinib; first compound 0.08 µM): 0.628; relative viability (R406 + Crizotinib; first compound 0.253 µM): 0.88; relative viability (R406 + Crizotinib; first compound 0.8 µM): 0.663; relative viability (R406 + Crizotinib; first compound 2.53 µM): 0.392; relative viability (R406 + Crizotinib; first compound 8 µM): 0.119; relative viability (Daporinad + Phenformin; first compound 0.0005 µM): 0.266; relative viability (Daporinad + Phenformin; first compound 0.001581 µM): 0.348; relative viability (Daporinad + Phenformin; first compound 0.005 µM): 0.353; relative viability (Daporinad + Phenformin; first compound 0.01581 µM): 0.367
